Literature values in US20040209344A1, “Crystal structure of angiotensin-converting enzyme-related carboxypeptidase” (priority 2002, published 2004).
Entries after “also recorded” stand apart in the source; their conditions may differ. Like-named read-outs stand apart in the source and are kept apart here.

Assays:
ACE2 [1] = target: T1, ACE2 (Homo sapiens, UniProt Q9BYF1); set-up: made in house; host or cells: SF9 insect cells, baculovirus (pBac Pak9 vector), secreted into the culture supernatant; details: Tipnis et al.
Target sequence in this assay (Q9BYF1 19-740): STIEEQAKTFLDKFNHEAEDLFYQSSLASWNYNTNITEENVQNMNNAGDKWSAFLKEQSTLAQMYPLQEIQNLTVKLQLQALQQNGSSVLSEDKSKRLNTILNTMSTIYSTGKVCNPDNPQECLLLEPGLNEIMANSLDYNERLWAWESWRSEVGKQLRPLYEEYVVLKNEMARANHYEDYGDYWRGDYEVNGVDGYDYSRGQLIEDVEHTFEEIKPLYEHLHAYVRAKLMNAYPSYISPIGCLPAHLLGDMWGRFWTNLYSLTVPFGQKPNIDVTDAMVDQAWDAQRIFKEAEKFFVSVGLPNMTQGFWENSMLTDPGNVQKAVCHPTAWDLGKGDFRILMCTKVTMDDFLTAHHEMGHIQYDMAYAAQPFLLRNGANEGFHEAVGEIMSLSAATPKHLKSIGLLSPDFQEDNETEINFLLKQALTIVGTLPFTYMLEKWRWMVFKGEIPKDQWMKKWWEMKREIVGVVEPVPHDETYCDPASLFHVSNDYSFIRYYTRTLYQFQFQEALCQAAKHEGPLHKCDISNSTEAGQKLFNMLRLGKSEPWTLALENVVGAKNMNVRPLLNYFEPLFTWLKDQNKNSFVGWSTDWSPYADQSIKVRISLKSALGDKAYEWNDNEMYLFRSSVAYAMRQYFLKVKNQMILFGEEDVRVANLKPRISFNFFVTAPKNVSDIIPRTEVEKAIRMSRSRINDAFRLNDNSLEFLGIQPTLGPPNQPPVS

ACE2 [2] = target: T1, ACE2
Target sequence in this assay (Q9BYF1 18-805): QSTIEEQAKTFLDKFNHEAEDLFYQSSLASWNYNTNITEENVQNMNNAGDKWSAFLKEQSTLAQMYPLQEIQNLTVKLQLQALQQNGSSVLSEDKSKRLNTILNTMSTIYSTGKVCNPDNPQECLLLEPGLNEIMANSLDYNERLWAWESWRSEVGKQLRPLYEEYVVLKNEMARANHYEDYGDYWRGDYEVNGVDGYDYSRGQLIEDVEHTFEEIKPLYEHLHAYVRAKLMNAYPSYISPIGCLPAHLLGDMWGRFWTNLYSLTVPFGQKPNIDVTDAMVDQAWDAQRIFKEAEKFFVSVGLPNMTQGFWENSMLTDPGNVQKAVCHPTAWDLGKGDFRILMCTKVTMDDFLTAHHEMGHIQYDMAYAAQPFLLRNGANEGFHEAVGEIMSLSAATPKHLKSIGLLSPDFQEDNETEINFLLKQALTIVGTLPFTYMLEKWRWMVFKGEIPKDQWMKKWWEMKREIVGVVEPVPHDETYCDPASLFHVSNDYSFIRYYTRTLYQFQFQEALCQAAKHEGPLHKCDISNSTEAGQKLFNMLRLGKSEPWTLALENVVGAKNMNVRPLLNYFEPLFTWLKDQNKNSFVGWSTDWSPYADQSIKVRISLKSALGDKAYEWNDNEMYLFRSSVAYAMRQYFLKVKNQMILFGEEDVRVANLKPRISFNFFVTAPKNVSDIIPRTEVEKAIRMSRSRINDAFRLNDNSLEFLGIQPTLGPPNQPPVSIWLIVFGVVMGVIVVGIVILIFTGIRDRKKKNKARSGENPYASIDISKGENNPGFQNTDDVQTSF

[3] = target: somatic ACE D991 to E mutant (Homo sapiens, UniProt P12821, D1020E); details: mutation of D991 to E in somatic ACE; Williams et al.
Chain of somatic ACE D991 to E mutant (P12821 30-1306 D1020E): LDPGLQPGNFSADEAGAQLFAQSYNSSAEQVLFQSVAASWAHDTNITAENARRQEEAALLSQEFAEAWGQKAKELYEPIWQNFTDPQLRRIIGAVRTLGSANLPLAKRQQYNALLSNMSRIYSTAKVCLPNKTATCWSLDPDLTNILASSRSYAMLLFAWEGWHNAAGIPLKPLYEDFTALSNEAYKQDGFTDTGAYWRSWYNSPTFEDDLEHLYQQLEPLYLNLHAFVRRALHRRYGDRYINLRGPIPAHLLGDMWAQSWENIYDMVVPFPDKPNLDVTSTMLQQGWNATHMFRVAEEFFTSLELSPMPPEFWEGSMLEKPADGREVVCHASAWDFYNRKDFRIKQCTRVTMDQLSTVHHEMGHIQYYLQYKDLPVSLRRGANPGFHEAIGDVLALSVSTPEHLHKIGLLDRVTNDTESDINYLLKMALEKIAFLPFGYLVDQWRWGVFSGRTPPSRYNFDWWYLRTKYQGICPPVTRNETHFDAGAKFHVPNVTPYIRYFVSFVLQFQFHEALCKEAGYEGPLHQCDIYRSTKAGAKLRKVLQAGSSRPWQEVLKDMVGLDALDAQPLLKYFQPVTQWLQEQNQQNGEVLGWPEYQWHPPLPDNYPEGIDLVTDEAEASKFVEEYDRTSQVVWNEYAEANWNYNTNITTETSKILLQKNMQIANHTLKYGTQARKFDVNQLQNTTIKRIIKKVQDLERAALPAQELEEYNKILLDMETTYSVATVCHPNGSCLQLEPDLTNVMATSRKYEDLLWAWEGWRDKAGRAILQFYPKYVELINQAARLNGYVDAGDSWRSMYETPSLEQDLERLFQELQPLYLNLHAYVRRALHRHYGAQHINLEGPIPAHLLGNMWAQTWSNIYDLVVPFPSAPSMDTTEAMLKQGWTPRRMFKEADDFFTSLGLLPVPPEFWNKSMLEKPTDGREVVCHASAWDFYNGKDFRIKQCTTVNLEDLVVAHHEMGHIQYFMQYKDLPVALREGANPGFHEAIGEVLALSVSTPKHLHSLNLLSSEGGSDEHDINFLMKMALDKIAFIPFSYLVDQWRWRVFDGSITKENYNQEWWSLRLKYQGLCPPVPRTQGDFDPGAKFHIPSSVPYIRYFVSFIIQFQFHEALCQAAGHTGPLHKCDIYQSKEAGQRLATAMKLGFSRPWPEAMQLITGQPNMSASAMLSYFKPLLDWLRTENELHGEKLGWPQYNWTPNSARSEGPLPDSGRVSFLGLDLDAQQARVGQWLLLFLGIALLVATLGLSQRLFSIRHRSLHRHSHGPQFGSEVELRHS

## C[C@H](CS)C(=O)N1CCC[C@H]1C(=O)O [captopril]
ACE2 [1]
  inhibition of ACE2 by ACE inhibitors: did not inhibit; also recorded: not active

## Angiotensin 1-5: peptide DRVYI; SEQ ID NO: 10
ACE2 [2]; Vickers et al.
  activity as peptide substrate for ACE2: inactive

## Dynorphin A 1-13
ACE2 [2]; Vickers et al.
  activity as peptide substrate for ACE2: best in vitro peptide substrates

## Angiotensin 1-9: peptide DRVYIHPFH; SEQ ID NO: 3
ACE2 [2]; Vickers et al.
  activity as peptide substrate for ACE2: inactive

## Leu-enkephalin: peptide YGGFL; SEQ ID NO: 8
ACE2 [2]; Vickers et al.
  activity as peptide substrate for ACE2: inactive

## Met-enkephalin: peptide YGGFM; SEQ ID NO: 9
ACE2 [2]; Vickers et al.
  activity as peptide substrate for ACE2: inactive

## C[C@H](N[C@@H](CCc1ccccc1)C(=O)O)C(=O)N1[C@H](C(=O)O)C[C@H]2CCCC[C@@H]21 [trandolaprilat]
[3]
  decrease in affinity for the inhibitor: about 8 fold

## Apelin 13
ACE2 [2]
  activity as peptide substrate for ACE2: best in vitro peptide substrates

## des-Arg^9 bradykinin
ACE2 [2]; Vickers et al.
  activity as peptide substrate for ACE2: best in vitro peptide substrates

## Angiotensin II: vasoconstrictor peptide DRVYIHPF; SEQ ID NO: 2
ACE2 [2]; Vickers et al.
  activity as peptide substrate for ACE2: best in vitro peptide substrates
